Laboratory results as given in the supplement of paper PMC10307832.

Tests used:
Test in all cases: relative viability (nuclei count vs DMSO), 5 days (fraction); higher = more cells survive
Tipifarnib + Crizotinib = compound: Cn1cncc1[C@@](N)(c1ccc(Cl)cc1)c1ccc2c(c1)c(-c1cccc(Cl)c1)cc(=O)n2C [Tipifarnib] + C[C@@H](Oc1cc(-c2cnn(C3CCNCC3)c2)cnc1N)c1c(Cl)ccc(F)c1Cl [Crizotinib] (partner 1 µM)
In short: (§1)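 Values are medians from duplicate plates. Each reflects relative viability, defined as the nuclei count of treated wells over that of vehicle wells. Lung cancer cell lines in 1536-well plates were pin-tool dosed one day after seeding with one drug alone or with a fixed anchor-drug dose plus five library-drug doses (not always all listed) in √10 steps, then fixed, stained and imaged at 4× after 5 days.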

Tipifarnib + Vorinostat = compound: Cn1cncc1[C@@](N)(c1ccc(Cl)cc1)c1ccc2c(c1)c(-c1cccc(Cl)c1)cc(=O)n2C [Tipifarnib] + O=C(CCCCCCC(=O)Nc1ccccc1)NO [Vorinostat] (partner 1 µM)
In short: as §1

Tipifarnib + Navitoclax = compound: Cn1cncc1[C@@](N)(c1ccc(Cl)cc1)c1ccc2c(c1)c(-c1cccc(Cl)c1)cc(=O)n2C [Tipifarnib] + CC1(C)CCC(c2ccc(Cl)cc2)=C(CN2CCN(c3ccc(C(=O)NS(=O)(=O)c4ccc(N[C@H](CCN5CCOCC5)CSc5ccccc5)c(S(=O)(=O)C(F)(F)F)c4)cc3)CC2)C1 [Navitoclax] (partner 0.5 µM)
In short: as §1

Tipifarnib + Tozasertib = compound: Cn1cncc1[C@@](N)(c1ccc(Cl)cc1)c1ccc2c(c1)c(-c1cccc(Cl)c1)cc(=O)n2C [Tipifarnib] + Cc1cc(Nc2cc(N3CCN(C)CC3)nc(Sc3ccc(NC(=O)C4CC4)cc3)n2)n[nH]1 [Tozasertib] (partner 0.1 µM)
In short: as §1

Cell Line	relative viability (Tipifarnib + Crizotinib; first compound 0.01 µM)	relative viability (Tipifarnib + Crizotinib; first compound 0.03162 µM)	relative viability (Tipifarnib + Crizotinib; first compound 0.1 µM)	relative viability (Tipifarnib + Crizotinib; first compound 0.3162 µM)	relative viability (Tipifarnib + Crizotinib; first compound 1 µM)	relative viability (Tipifarnib + Vorinostat; first compound 0.01 µM)	relative viability (Tipifarnib + Vorinostat; first compound 0.03162 µM)	relative viability (Tipifarnib + Vorinostat; first compound 0.1 µM)	relative viability (Tipifarnib + Vorinostat; first compound 0.3162 µM)	relative viability (Tipifarnib + Vorinostat; first compound 1 µM)	relative viability (Tipifarnib + Navitoclax; first compound 0.01 µM)	relative viability (Tipifarnib + Navitoclax; first compound 0.03162 µM)	relative viability (Tipifarnib + Navitoclax; first compound 0.1 µM)	relative viability (Tipifarnib + Navitoclax; first compound 0.3162 µM)	relative viability (Tipifarnib + Navitoclax; first compound 1 µM)	relative viability (Tipifarnib + Tozasertib; first compound 0.01 µM)	relative viability (Tipifarnib + Tozasertib; first compound 0.03162 µM)	relative viability (Tipifarnib + Tozasertib; first compound 0.1 µM)	relative viability (Tipifarnib + Tozasertib; first compound 0.3162 µM)	relative viability (Tipifarnib + Tozasertib; first compound 1 µM)
COR-L23	0.731	0.341	0.3	0.248	0.386	0.541	0.34	0.316	0.221	0.252	1.15	0.804	0.679	0.492	0.556	0.213	0.175	0.232	0.146	0.15
NCI-H1993	0.77	0.749	0.617	0.595	0.661	0.819	0.446	0.489	0.468	0.497	0.852	0.866	0.765	0.645	0.671	0.444	0.481	0.553	0.521	0.481
NCI-H1437	0.978	0.959	1	0.763	0.894	0.837	0.796	0.747	0.646	0.601	1.14	1.07	1.06	1.03	0.927	0.398	0.358	0.381	0.319	0.353
UMC-11	0.24	0.278	0.224	0.181	0.184	0.314	0.348	0.338	0.291	0.307	0.263	0.211	0.235	0.191	0.194	0.19	0.193	0.194	0.181	0.177
201T	1.05	0.909	0.987	0.954	0.885	1.04	0.965	0.908	0.839	0.583	1.21	1.23	1.2	1.15	1.18	1.02	0.945	0.864	0.705	0.767
ChaGo-K-1	1.12	1.23	0.762	0.992	0.484	0.772	0.706	0.752	0.691	0.297	1.07	1.11	1.09	0.933	0.626	0.226	0.22	0.213	0.198	0.175
NCI-H1650	0.47	0.454	0.401	0.324	0.337	0.415	0.399	0.306	0.253	0.212	0.666	0.352	0.402	0.291	0.289	0.267	0.283	0.241	0.205	0.326
LOU-NH91	0.741	0.752	0.695	0.619	0.646	0.897	0.53	0.749	0.747	0.458	0.682	0.633	0.663	0.483	0.398	0.61	0.524	0.329	0.464	0.441
HOP-62	0.726	0.528	0.303	0.35	0.448	0.624	0.186	0.335	0.243	0.203	0.937	0.55	0.377	0.233	0.33	0.297	0.292	0.312	0.2	0.244
NCI-H1915	0.7	0.684	0.431	0.405	0.425	0.544	0.43	0.373	0.305	0.336	0.791	0.65	0.768	0.455	0.469	0.358	0.326	0.293	0.26	0.287
NCI-H3122	0.281	0.217	0.249	0.256	0.254	1.12	0.962	0.709	0.538	0.219	1.02	0.95	0.857	0.675	0.782	0.372	0.27	0.277	0.196	0.183
NCI-H1651	0.951	0.856	0.893	0.789	0.843	0.545	0.54	0.537	0.507	0.335	1.15	1.21	0.994	0.912	0.895	0.927	0.649	0.615	0.575	0.711
NCI-H838	0.694	0.538	0.434	0.434	0.433	0.665	0.646	0.606	0.568	0.588	1.09	0.978	0.932	0.854	0.862	0.254	0.286	0.248	0.214	0.252
NCI-H596	1.09	0.974	1.03	0.945	0.813	1.11	0.462	0.467	0.456	0.434	1.05	0.78	0.72	0.739	0.64	1.05	0.687	0.713	0.722	0.589
SK-LU-1	0.932	0.665	0.667	0.639	0.657	0.771	0.635	0.492	0.417	0.471	0.779	0.488	0.435	0.25	0.405	0.305	0.302	0.311	0.248	0.265
NCI-H441	0.723	0.465	0.492	0.346	0.277	1.08	0.724	0.68	0.431	0.44	0.498	0.255	0.481	0.294	0.253	0.671	0.554	0.528	0.356	0.439

Cell Line	relative viability (Tipifarnib + Crizotinib; first compound 0.01 µM)	relative viability (Tipifarnib + Crizotinib; first compound 0.03162 µM)	relative viability (Tipifarnib + Crizotinib; first compound 0.1 µM)	relative viability (Tipifarnib + Crizotinib; first compound 0.3162 µM)	relative viability (Tipifarnib + Crizotinib; first compound 1 µM)	relative viability (Tipifarnib + Vorinostat; first compound 0.01 µM)	relative viability (Tipifarnib + Vorinostat; first compound 0.03162 µM)	relative viability (Tipifarnib + Vorinostat; first compound 0.1 µM)	relative viability (Tipifarnib + Vorinostat; first compound 0.3162 µM)	relative viability (Tipifarnib + Vorinostat; first compound 1 µM)	relative viability (Tipifarnib + Navitoclax; first compound 0.01 µM)	relative viability (Tipifarnib + Navitoclax; first compound 0.03162 µM)	relative viability (Tipifarnib + Navitoclax; first compound 0.1 µM)	relative viability (Tipifarnib + Navitoclax; first compound 0.3162 µM)	relative viability (Tipifarnib + Navitoclax; first compound 1 µM)	relative viability (Tipifarnib + Tozasertib; first compound 0.01 µM)	relative viability (Tipifarnib + Tozasertib; first compound 0.03162 µM)	relative viability (Tipifarnib + Tozasertib; first compound 0.1 µM)	relative viability (Tipifarnib + Tozasertib; first compound 0.3162 µM)	relative viability (Tipifarnib + Tozasertib; first compound 1 µM)
SK-MES-1	0.974	0.864	0.95	0.69	0.656	1.14	0.99	1.05	0.842	0.57	1.3	1.11	0.866	0.785	0.655	0.834	0.76	0.63	0.566	0.572
NCI-H1355	1.19	1.05	0.764	0.64	0.673	0.625	0.544	0.409	0.466	0.301	0.906	0.791	0.767	0.614	0.628	0.474	0.408	0.321	0.349	0.329
SW 1573	0.767	0.701	0.462	0.317	0.316	0.701	0.434	0.308	0.312	0.179	1.05	0.678	0.49	0.407	0.331	0.177	0.179	0.145	0.142	0.176
NCI-H2347	0.53	0.546	0.57	0.476	0.486	0.547	0.515	0.497	0.431	0.476	0.782	0.576	0.643	0.627	0.598	0.516	0.402	0.431	0.382	0.461
LCLC-97TM1	0.329	0.295	0.244	0.227	0.15	0.657	0.166	0.518	0.394	0.121	0.557	0.359	0.241	0.446	0.19	0.154	0.18	0.186	0.148	0.215
EMC-BAC-2	0.737	0.621	0.659	0.534	0.526	0.355	0.386	0.233	0.338	0.191	1.2	1.12	1.06	0.993	0.816	0.3	0.281	0.272	0.262	0.271
NCI-H1975	0.93	0.989	0.717	0.566	0.49	0.639	0.682	0.588	0.485	0.491	1.29	1.04	1.08	0.541	0.734	0.853	0.695	0.682	0.386	0.374
BEN	0.928	0.939	0.731	0.684	0.636	0.597	0.488	0.538	0.464	0.422	0.0636	0.0524	0.0587	0.0688	0.0536	0.576	0.398	0.491	0.418	0.504
NCI-H23	0.579	0.491	0.386	0.311	0.249	0.543	0.31	0.299	0.205	0.167	1.11	0.883	0.657	0.562	0.406	0.346	0.371	0.384	0.253	0.259
NCI-H520	1.05	0.598	0.645	0.341	0.345	0.781	0.695	0.599	0.515	0.47	1.24	1.03	0.917	0.965	0.72	0.404	0.4	0.348	0.335	0.336
CAL-12T	0.567	0.387	0.334	0.173	0.228	0.701	0.519	0.454	0.324	0.29	1.21	1.1	0.768	0.526	0.716	0.277	0.278	0.241	0.188	0.246
EPLC-272H	1	0.722	0.766	0.64	0.265	0.4	0.457	0.371	0.233	0.139	1.34	0.908	1.07	0.837	0.741	0.366	0.266	0.224	0.249	0.243
NCI-H2405	0.896	0.827	0.837	0.804	0.712	1.12	0.967	0.817	0.881	0.547	1.01	0.86	0.961	0.8	0.537	0.708	0.666	0.626	0.544	0.532
HCC-15	0.666	0.601	0.396	0.41	0.448	0.833	0.701	0.673	0.589	0.53	0.66	0.618	0.555	0.335	0.334	0.242	0.227	0.227	0.153	0.174
PC-3 [JPC-3]	1.04	0.928	0.88	0.828	0.709	0.823	0.674	0.529	0.426	0.386	0.814	0.648	0.749	0.532	0.416	0.827	0.827	0.722	0.701	0.535
NCI-H1944	1.12	0.92	0.624	0.568	0.609	0.509	0.382	0.309	0.289	0.285	1.18	0.826	0.913	0.519	0.524	0.257	0.256	0.236	0.25	0.236
